Data as given in patent US9302999B2, “Substituted triazoles as herbicides” (E. I. DU PONT DE NEMOURS AND COMPANY, priority 2012, dated 2016).

Columns and labels:
Format in all cases: in vivo
[1] = test system: johnsongrass (Sorghum halepense); test: Test E pre-/postemergence: johnsongrass; settings: Preemergence, scale 0 to 100
From the text: (§1) Seeds of plant species selected from corn (Zea mays), soybean (Glycine max), velvetleaf (Abutilon theophrasti), lambsquarters (Chenopodium album), poinsettia, wild (wild poinsettia, Euphorbia heterophylla), pigweed, palmer (palmer pigweed, Amaranthus palmeri), waterhemp (common waterhemp, Amaranthus rudis), smartweed (ladysthumb smartweed, Polygonum persicaria), surinam grass (Brachiaria decumbens), crabgrass, large (large crabgrass, Digitaria sanguinalis), crabgrass, Brazil (Brazilian crabgrass, Digitaria horizontalis), panicum, fall (fall panicum, Panicum dichotomiflorum), foxtail, giant (giant foxtail, Setaria faberii), foxtail, green (green foxtail, Setaria viridis), goosegrass (Eleusine indica), johnsongrass (Sorghum halepense), ragweed (common ragweed, Ambrosia elation), barnyardgrass (Echinochloa crus-galli), sandbur (southern sandbur, Cenchrus echinatus), arrowleaf sida (Sida rhombifolia), ryegrass, Italian (Italian ryegrass, Lolium multiflorum), dayflower, (VA) (Virginia dayflower, Commelina virginica), field bindweed (Convolvulus arvensis), cocklebur (common cocklebur, Xanthium strumarium), morningglory (Ipomoea coccinea), nightshade (eastern black nightshade, Solanum ptycanthum), kochia (Kochia scoparia), nutsedge, yellow (yellow nutsedge, Cyperus esculentus) and beggarticks (hairy beggarticks, Bidens pilosa) were planted into a silt loam soil and treated preemergence with test chemicals formulated in a non-phytotoxic solvent mixture which included a surfactant. At the same time, plants selected from these crop and weed species were planted in pots containing a growing medium comprising spaghnum peat moss, vermiculite, wetting agent and starter nutrients and treated with postemergence applications of some of the test chemicals formulated in the same manner. Plants ranged in height from 2 to 18 cm for postemergence treatments (1- to 4-leaf stage).
(§2) Treated plants and controls were maintained in a greenhouse for 14 to 21 days, after which time all species were compared to controls and visually evaluated. Plant response ratings, summarized in Table E, are based on a scale of 0 to 100 where 0 is no effect and 100 is complete control. A dash (-) response means no test result.

[2] = test system: ragweed (common ragweed, Ambrosia elation); test: Test E pre-/postemergence: ragweed; settings: Preemergence, scale 0 to 100
From the text: as §1, §2

[3] = test system: goosegrass (Eleusine indica); test: Test E pre-/postemergence: goosegrass; settings: Preemergence, scale 0 to 100
From the text: as §1, §2

[4] = test system: radish, wild (wild radish, Raphanus raphanistrum); test: Test D pre-/postemergence: radish, wild
From the text: Seeds of plant species selected from bluegrass (annual bluegrass, Poa annua), blackgrass (Alopecurus myosuroides), canarygrass (Phalaris minor), chickweed (common chickweed, Stellaria media), galium (catchweed bedstraw, Galium aparine), bromegrass, downy (downy bromegrass, Bromus tectorum), field poppy (Papaver rhoeas), field violet (Viola arvensis), foxtail, green (green foxtail, Setaria viridis), deadnettle (henbit deadnettle, Lamium amplexicaule), ryegrass, Italian (Italian ryegrass, Lolium multiflorum), kochia (Kochia scoparia), lambsquarters (Chenopodium album), oilseed rape (Brassica napus), pigweed (Amaranthus retroflexus), Russian thistle (Salsola iberica), chamomile (scentless chamomile, Matricaria inodora), speedwell (bird's-eye speedwell, Veronica persica), barley, spring (spring barley, Hordeum vulgare), wheat, spring (spring wheat, Triticum aestivum), buckwheat, wild (wild buckwheat, Polygonum convolvulus), mustard, wild (wild mustard, Sinapis arvensis), oat, wild (wild oat, Avena fatua), radish, wild (wild radish, Raphanus raphanistrum), windgrass (Apera spica-venti), barley, winter (winter barley, Hordeum vulgare), and wheat, winter (winter wheat, Triticum aestivum) were planted into a silt loam soil and treated preemergence with test chemicals formulated in a non-phytotoxic solvent mixture which included a surfactant. At the same time, these same crop and weed species were planted in pots containing the planting medium comprising spaghnum peat moss, vermiculite, wetting agent and starter nutrients and treated with postemergence applications of the test chemicals formulated in the same manner. Plants ranged in height from 2 to 18 cm (1- to 4-leaf stage).
as §2, with “controlled growth environment” for “greenhouse”, “days” for “days,”, “D,” for “E,”

[5] = test system: goosegrass (Eleusine indica); test: Test F pre-/postemergence: goosegrass; settings: Preemergence
From the text: (§3) Seeds of plant species selected from corn (Zea mays), soybean (Glycine max), velvetleaf (Abutilon theophrasti), lambsquarters (Chenopodium album), poinsettia, wild (wild poinsettia, Euphorbia heterophylla), pigweed, palmer (palmer pigweed, Amaranthus palmeri), waterhemp (common waterhemp, Amaranthus rudis), surinam grass (Brachiaria decumbens), crabgrass, Brazil (Brazilian crabgrass, Digitaria horizontalis), panicum, fall (fall panicum Panicum dichotomiflorum), crabgrass, large (large crabgrass, Digitaria sanguinalis), foxtail, giant (giant foxtail, Setaria faberii), foxtail, green (green foxtail Setaria viridis), goosegrass (Eleusine indica), ragweed (common ragweed, Ambrosia elatior), barnyardgrass (Echinochloa crus-galli), sandbur (southern sandbur, Cenchrus echinatus), arrowleaf sida (Sida rhombifolia), ryegrass, Italian (Italian ryegrass, Lolium multiflorum), dayflower, VA (Virginia (VA) dayflower, Commelina virginica), field bindweed (Convolvulus arvensis), cocklebur (common cocklebur, Xanthium strumarium), morningglory (Ipomoea coccinea), nightshade (eastern black nightshade, Solanum ptycanthum), kochia (Kochia scoparia), nutsedge, yellow (yellow nutsedge, Cyperus esculentus), johnsongrass (Sorghum halepense), smartweed (ladysthumb smartweed, Polygonum persicaria), and beggarticks (hairy beggarticks, Bidens pilosa), were planted into a silt loam soil and treated preemergence with test chemicals formulated in a non-phytotoxic solvent mixture which included a surfactant. At the same time, plants selected from these crop and weed species and also pigweed (Amaranthus retroflexus), waterhemp_RES1 (ALS/Triazine resistant common waterhemp, Amaranthus rudis) and waterhemp_RES2 (ALS/HPPD resistant common waterhemp, Amaranthus rudis) were planted in pots containing a planting medium comprising spaghnum peat moss, vermiculite, wetting agent and starter nutrients treated with postemergence applications of some of the test chemicals formulated in the same manner. Plants ranged in height from 2 to 18 cm for postemergence treatments (1- to 4-leaf stage).
as §2

[6] = test system: velvetleaf (Abutilon theophrasti); test: Test F pre-/postemergence: velvetleaf; settings: Preemergence
From the text: as §3, §2

[7] = test system: foxtail, green (green foxtail Setaria viridis); test: Test F pre-/postemergence: foxtail, green; settings: Preemergence
From the text: as §3, §2

[8] = Postemergence, 31 g ai/ha, scale 0 to 100 (0 no effect, 100 complete control)
[9] = Postemergence, 62 g ai/ha, scale 0 to 100 (0 no effect, 100 complete control)
[10] = Postemergence, 125 g ai/ha, scale 0 to 100, 0 no effect, 100 complete control
[11] = Postemergence, 250 g ai/ha, scale 0 to 100 (0 no effect, 100 complete control)
[12] = Postemergence, 16 g ai/ha, scale 0 to 100
[13] = Preemergence, 31 g ai/ha, scale 0 to 100 (0 no effect, 100 complete control)
[14] = Preemergence, 62 g ai/ha, scale 0 to 100
[15] = Preemergence, 125 g ai/ha, scale 0 to 100
[16] = 16 g ai/ha, scale 0 to 100 (0 no effect, 100 complete control)
[17] = 31 g ai/ha, scale 0 to 100 (0 no effect, 100 complete control)
[18] = 4 g ai/ha, scale 0 to 100, 0 no effect, 100 complete control
[19] = 8 g ai/ha, scale 0 to 100, 0 no effect, 100 complete control

Structure (SMILES)	Plant response rating: Johnsongrass ([1]; 16 g ai/ha)	Plant response rating: Johnsongrass ([1]; 31 g ai/ha)	Plant response rating: Johnsongrass ([1]; 62 g ai/ha)	Plant response rating: Johnsongrass ([1]; 125 g ai/ha)	Plant response rating: Ragweed ([2]; 16 g ai/ha)	Plant response rating: Ragweed ([2]; 31 g ai/ha)	Plant response rating: Ragweed ([2]; 62 g ai/ha)	Plant response rating: Ragweed ([2]; 125 g ai/ha)	Plant response rating: Goosegrass ([3]; 16 g ai/ha)	Plant response rating: Goosegrass ([3]; 31 g ai/ha)	Plant response rating: Goosegrass ([3]; 125 g ai/ha)	Plant response rating: Radish, Wild [4, 8]	Plant response rating: Radish, Wild [4, 9]	Plant response rating: Radish, Wild [4, 10]	Plant response rating: Radish, Wild [4, 11]	Plant response rating, Radish, Wild [4, 12]	Plant response rating, Goosegrass [5, 16]	Plant response rating, Goosegrass [5, 17]	Plant response rating, Goosegrass ([5]; 62 g ai/ha, scale 0 to 100)	Plant response rating, Velvetleaf [6, 16]	other results
Cc1nn(-c2ccc(F)cc2)nc1Cc1ccnc(C(F)(F)F)c1 [Compound 16, 4-[[2-(4-fluorophenyl)-5-methyl-2H-1,2,3-triazol-4-yl]methyl]-2-(trifluoromethyl)pyridine]	15	20	40	98	0	0	30	30	40	98	100	100	100	100	100	90					Plant response rating: Johnsongrass ([1]; 8 g ai/ha): 0; Plant response rating: Ragweed ([2]; 8 g ai/ha): 0; Plant response rating: Goosegrass ([3]; 8 g ai/ha): 40; Plant response rating: Goosegrass ([3]; 62 g ai/ha): 100
Cc1nn(-c2ccc(C(F)(F)F)cc2)nc1Cc1ccnc(C(F)(F)F)c1 [Compound 47, 4-[[5-methyl-2-[4-(trifluoromethyl)phenyl]-2H-1,2,3-triazol-4-yl]methyl]-2-(trifluoromethyl)pyridine]	25	30	35	40	0	0	10	50	100	100	100										Plant response rating: Johnsongrass ([1]; 250 g ai/ha): 100; Plant response rating: Ragweed ([2]; 250 g ai/ha): 90; Plant response rating: Goosegrass ([3]; 250 g ai/ha): 100
Cc1nn(-c2ccc(F)cc2)nc1Oc1ccnc(C(F)(F)F)c1 [Compound 129, 4-[[2-(4-fluorophenyl)-5-methyl-2H-1,2,3-triazol-4-yl]oxy]-2-(trifluoromethyl)pyridine]	20	20	20	25	0	5	20	20	40	50	100	90	100	100	100	90					Plant response rating: Johnsongrass ([1]; 8 g ai/ha): 0; Plant response rating: Ragweed ([2]; 8 g ai/ha): 0; Plant response rating: Goosegrass ([3]; 8 g ai/ha): 40; Plant response rating: Goosegrass ([3]; 62 g ai/ha): 60; Plant response rating, Radish, Wild ([4]; Preemergence, 16 g ai/ha, scale 0 to 100 (0 no effect, 100 complete control)): 0; Plant response rating, Radish, Wild [4, 13]: 0; Plant response rating, Radish, Wild [4, 14]: 10; Plant response rating, Radish, Wild [4, 15]: 100; Plant response rating, Radish, Wild ([4]; Preemergence, 250 g ai/ha, scale 0 to 100): 100
Cc1nn(-c2ccnc(C(F)(F)F)c2)nc1Cc1ccnc(C(F)(F)F)c1 [Compound 137]												40	90	100	100	40					
Fc1ccc(-n2nc(Cc3ccnc(C(F)(F)F)c3)c(OCC(F)(F)F)n2)cc1 [Compound 142]																	40	70	100	0	Plant response rating, Goosegrass ([5]; 125 g ai/ha, scale 0 to 100): 100; Plant response rating, Velvetleaf [6, 17]: 0; Plant response rating, Velvetleaf ([6]; 125 g ai/ha, scale 0 to 100): 75; Plant response rating, Foxtail, Green [7, 16]: 20; Plant response rating, Foxtail, Green [7, 17]: 75; Plant response rating, Foxtail, Green ([7]; 62 g ai/ha, scale 0 to 100): 98; Plant response rating, Foxtail, Green ([7]; 125 g ai/ha, scale 0 to 100): 100
Cc1nn(-c2ccc(F)c(C(F)(F)F)c2)nc1Oc1ccnc(C(F)(F)F)c1 [Compound 147]												100	95	100		85					Plant response rating, Radish, Wild [4, 13]: 10; Plant response rating, Radish, Wild [4, 14]: 100; Plant response rating, Radish, Wild [4, 15]: 100
CCCc1nn(-c2ccc(F)cc2)nc1Cc1ccnc(C(F)(F)F)c1 [Compound 153]																	80	95	98	20	Plant response rating, Goosegrass ([5]; 125 g ai/ha, scale 0 to 100): 100; Plant response rating, Goosegrass ([5]; 250 g ai/ha, scale 0 to 100): 100; Plant response rating, Velvetleaf [6, 17]: 50; Plant response rating, Velvetleaf ([6]; 125 g ai/ha, scale 0 to 100): 98; Plant response rating, Velvetleaf ([6]; 250 g ai/ha, scale 0 to 100): 100; Plant response rating, Foxtail, Green [7, 16]: 50; Plant response rating, Foxtail, Green [7, 17]: 75; Plant response rating, Foxtail, Green ([7]; 62 g ai/ha, scale 0 to 100): 100; Plant response rating, Foxtail, Green ([7]; 125 g ai/ha, scale 0 to 100): 100; Plant response rating, Foxtail, Green ([7]; 250 g ai/ha, scale 0 to 100): 100
Cc1nn(-c2ccc(C(F)(F)F)c(F)c2)nc1Cc1ccnc(C(F)(F)F)c1 [Compound 162]																	95	100	100	0	Plant response rating, Goosegrass [5, 18]: 0; Plant response rating, Goosegrass [5, 19]: 0; Plant response rating, Velvetleaf [6, 18]: 0; Plant response rating, Velvetleaf [6, 19]: 0; Plant response rating, Velvetleaf [6, 17]: 0; Plant response rating, Foxtail, Green [7, 18]: 0; Plant response rating, Foxtail, Green [7, 19]: 15; Plant response rating, Foxtail, Green [7, 16]: 80; Plant response rating, Foxtail, Green [7, 17]: 100; Plant response rating, Foxtail, Green ([7]; 62 g ai/ha, scale 0 to 100): 100
